Measurements from patent US20230081720A1, “MCL-1 INHIBITOR ANTIBODY-DRUG CONJUGATES AND METHODS OF USE” (NOVARTIS AG, priority 2019, published 2023).
Like-named read-outs stand apart in the source and are kept apart here. Marks after values point to notes of the source that are not given here.

Assays:
[1] = tested on: EOL1 human acute myeloid (eosinophilic) leukemia xenograft model; test: EOL1 xenograft, CD74-ADCs Fc silent with different linker payloads (Example 15); format: in vivo, mice; settings: for T/C (%): day 10; for ΔTumor volume (mm^3): day 10, mean
Procedure: To optimize the linker payload, efficacy of 6 CD74-ADCs with different linker payloads (L5-P1, L30-P1, L31-P1, L32-P1, L33-P1 and L34-P1) was evaluated in the EOL1 model in vivo.
EOL1 luciferase transfected cells were cultured at 37° C. in an atmosphere of 5% CO2 in air in RPM11640 (BioConcept Ltd. Amimed) supplemented with 10% FCS (BioConcept Ltd. Amimed, #2-01 F30-1), 2 mM L-glutamine (BioConcept Ltd. Amimed, #5-10K00-H) and 1 mM sodium pyruvate (BioConcept Ltd. Amimed, #5-60F00-H), 10 mM HEPES (Gibco #11560496). To establish EOL1 xenografts cells were harvested and re-suspended in HBSS (Gibco, #14175) before injecting 100 μL containing 5×10^6 cells subcutaneously in the flanks of female SCID beige mice (Charles River, Germany). Tumor growth was monitored regularly post cell inoculation and animals were randomized into treatment groups (n=6) with a mean tumor volume of about 130 mm^3. The ADCs were administered intravenously (iv) once at the start of treatment at 2.5 mg/kg or at 3.3 mg/kg in combination with venetoclax which was administered orally (po) daily (qd) at 50 mg/kg. Doses were adjusted to individual mouse body weights. The iv dose volume was 10 ml/kg and each ADC was dissolved in 0.9% (w/v) NaCl in water. Tumor volume data on day 10 post treatment were analyzed statistically using one way ANOVA post hoc Tukey's multiple comparisons test (Indigo Software). Results are presented as mean±SEM. As a measure of efficacy the % T/C value is calculated on day 10 according to:
(Δtumor volume^treated/Δtumor volume^control)*100
Tumor regression was calculated according to:
−(Δtumor volume^treated/tumor volume^treated at start)*100
Where Δtumor volumes represent the mean tumor volume on the evaluation day minus the mean tumor volume at the start of the experiment.

Mcl-1 protein = Mcl-1 protein (Homo sapiens, UniProt Q07820); test: Inhibition of Mcl-1 by fluorescence polarization (FP); format: binding; settings: fluorescein-labelled ligand 1 nM, Mcl-1 protein 5 nM
Procedure: The relative binding potency of each compound was determined via Fluorescence Polarization (FP).
An 11-point serial dilution of each compound was prepared in DMSO and 2 PI transferred into flat bottomed, low binding, 384-well plate (final DMSO concentration 5%). 38 μl of buffer (10 mM 4-(2-hydroxyethyl)-1-piperazineethanesulfonic acid [HEPES], 150 mM NaCl, 0.05% Tween 20, pH 7.4), containing the fluorescein-labelled ligand (final concentration 1 nM) and Mcl-1 protein (final concentration 5 nM) was then added.

[2] = tested on: NCI-H929 multiple myeloma cell line; test: In vitro cytotoxicity, Microculture Tetrazolium Assay (MTT); format: cell-based; settings: NCI-H929 cells, 48 hours
Procedure: Cytotoxicity studies were carried out on the NCI-H929 multiple myeloma cell line. The cells were distributed onto microplates and exposed to the test compounds for 48 hours.

Monomac1 cells = test: Viability of Monomac1 AML cell line, CellTiterGlo 72 h; format: cell-based; settings: read-out: IC50 M (CTG 72 h) Monomac1
Procedure: Monomac1 cells were cultivated in RPMI supplemented with 10% heat inactivated fetal bovine serum, penicillin (100 IU/ml), streptomycin ([…]) and L-glutamine (2 mM). Cell lines were cultured at 37° C. in a humidified atmosphere containing 5% CO2. Cells were seeded in 96 microwell plates and exposed to the payloads or ADCs for 72 h (serially diluted; 9 concentrations each, triplicates). Effects of payloads or ADCs on cell viability were assessed after 3 days of incubation at 37° C./5% CO2 by quantification of cellular ATP levels using CellTiterGlo at 75 μL reagent/well. All the conditions were tested in triplicates. Luminescence was quantified on a multipurpose plate reader. IC50s were calculated using standard four-parametric curve fitting. […] Each experiment was performed at least twice, with results being reproducible.

[3] = 2.5 mg/kg i.v. once + Venetoclax 50 mg/kg p.o. qd
[4] = 3.3 mg/kg i.v. once + Venetoclax 50 mg/kg p.o. qd
[5] = female SCID beige mice, 2.5 mg/kg i.v. once + Venetoclax 50 mg/kg p.o. qd

Chain of Mcl-1 protein (Q07820 whole entry): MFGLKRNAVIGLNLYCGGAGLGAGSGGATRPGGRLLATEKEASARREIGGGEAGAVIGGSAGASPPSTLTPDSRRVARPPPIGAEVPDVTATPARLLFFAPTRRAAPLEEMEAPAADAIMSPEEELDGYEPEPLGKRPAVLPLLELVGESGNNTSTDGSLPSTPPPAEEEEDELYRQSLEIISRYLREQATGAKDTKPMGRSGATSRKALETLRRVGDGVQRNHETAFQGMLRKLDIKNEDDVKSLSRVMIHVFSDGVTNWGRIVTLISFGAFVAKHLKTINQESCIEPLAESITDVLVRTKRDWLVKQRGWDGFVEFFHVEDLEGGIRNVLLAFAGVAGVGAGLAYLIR

Row | IC50 (Mcl-1 protein) | Compound | IC50 ([2]; Homo sapiens) | other results
1 | 0.84 nM | COc1c(O)cccc1-c1nccc(COc2ccccc2C[C@@H](Oc2ncnc3sc(-c4ccc(F)cc4)c(-c4ccc(OCCN5CCN(C)CC5)c(Cl)c4C)c23)C(=O)O)n1 [C14, (2R)-2-{[(5Sa)-5-{3-chloro-2-methyl-4-[2-(4-methylpiperazin-1-yl)ethoxy]phenyl}-6-(4-fluorophenyl)thieno[2,3-d]pyrimidin-4-yl]oxy}-3-(2-{[2-(3-hydroxy-2-methoxyphenyl)pyrimidin-4-yl]methoxy}phenyl)propanoic Acid] | 2.61 nM | –
2 | 2.5 nM | Cc1c(-c2c(-c3ccc(F)cc3)sc3ncnc(O[C@H](Cc4ccccc4OCc4ccnc(-c5cccc(S(=O)(=O)O)c5)n4)C(=O)O)c23)ccc(OCCN2CCN(C)CC2)c1Cl [C9, (2R)-2-{[(5Sa)-5-{3-chloro-2-methyl-4-[2-(4-methylpiperazin-1-yl)ethoxy]phenyl}-6-(4-fluorophenyl)thieno[2,3-d]pyrimidin-4-yl]oxy}-3-(2-{[2-(3-sulfophenyl)pyrimidin-4-yl]methoxy}phenyl)propanoic acid] | 2270 nM | –
3 | 2.6 nM | Cc1c(-c2c(-c3ccc(F)cc3)sc3ncnc(OC(Cc4ccccc4OCc4ccnc(-c5ccc(CP(=O)(O)O)cc5)n4)C(=O)O)c23)ccc(OCCN2CCNCC2)c1Cl [C4, (2R)-2-[(5Sa)-5-[3-chloro-2-methyl-4-(2-piperazin-1-ylethoxy)phenyl]-6-(4-fluorophenyl)thieno[2,3-d]pyrimidin-4-yl]oxy-3-[2-[[2-[4-(phosphonomethyl)phenyl]pyrimidin-4-yl]methoxy]phenyl]propanoic acid] | 3210 nM | –
4 | 2.2 nM | COc1ccccc1-c1nccc(COc2ccccc2C[C@@H](Oc2ncnc3sc(-c4cc(N)c(F)c(F)c4)c(-c4ccc(OCCN5CCN(C)CC5)c(Cl)c4C)c23)C(=O)O)n1 [C13, (2R)-2-{[(5Sa)-6-(3-amino-4,5-difluorophenyl)-5-{3-chloro-2-methyl-4-[2-(4-methylpiperazin-1-yl)ethoxy]phenyl}thieno[2,3-d]pyrimidin-4-yl]oxy}-3-(2-{[2-(2-methoxyphenyl)pyrimidin-4-yl]methoxy}phenyl)propanoic acid] | 3.76 nM | –
5 | 2.6 nM | COc1ccccc1-c1nccc(COc2ccccc2C[C@@H](Oc2ncnc3sc(-c4ccc(F)c(O)c4)c(-c4ccc(OCCN5CC[N+](C)(CCCS(=O)(=O)[O-])CC5)c(Cl)c4C)c23)C(=O)O)n1 [C2, (2R)-2-[(5Sa)-5-[3-chloro-2-methyl-4-[2-[4-methyl-4-(3-sulfopropyl)piperazin-4-ium-1-yl]ethoxy]phenyl]-6-(4-fluoro-3-hydroxy-phenyl)thieno[2,3-d]pyrimidin-4-yl]oxy-3-[2-[[2-(2-methoxyphenyl)pyrimidin-4-yl]methoxy]phenyl]propanoic acid] | 8510 nM | –
6 | 0.948 nM | COc1ccccc1-c1nccc(COc2ccccc2C[C@@H](Oc2ncnc3sc(-c4ccc(F)cc4)c(-c4ccc(OCCN5CCNCC5)c(Cl)c4C)c23)C(=O)O)n1 [C3, (2R)-2-[(5Sa)-5-[3-chloro-2-methyl-4-(2-piperazin-1-ylethoxy)phenyl]-6-(4-fluorophenyl)thieno[2,3-d]pyrimidin-4-yl]oxy-3-[2-[[2-(2-methoxyphenyl)pyrimidin-4-yl]methoxy]phenyl]propanoic acid] | 42 nM | –

The remaining lines, values behind:

Row | Compound | IC50 (Mcl-1 protein) | IC50 ([2]; Homo sapiens) | other results
7 | COCCOCCOCCOCCOCCOCCOCCOCCOCCOCCOCCOCCOCCOCCOCCOCCn1cc(COCc2cc(NC(=O)[C@H](CCCNC(N)=O)NC(=O)[C@@H](NC(=O)CCOCCN3C(=O)CC(C)C3=O)C(C)C)ccc2C[N+]2(C)CCN(CCOc3ccc(-c4c(-c5ccc(F)cc5)sc5ncnc(O[C@H](Cc6ccccc6OCc6ccnc(-c7ccccc7OC)n6)C(=O)O)c45)c(C)c3Cl)CC2)nn1 (some centres unmarked) [CD74-L34-P1] | – | – | T/C (%) [1, 3]: 40* %; T/C (%) [1, 4]: 17*^$ %; ΔTumor volume (mm^3) [1, 4]: 170 mm^3; ΔTumor volume (mm^3) [1, 5]: 401 mm^3
8 | COCCOCCOCCOCCOCCOCCOCCOCCOCCOCCOCCOCCC(=O)N(C)Cc1cc(NC(=O)[C@H](CCCNC(N)=O)NC(=O)[C@@H](NC(=O)CCOCCN2C(=O)CC(C)C2=O)C(C)C)ccc1C[N+]1(C)CCN(CCOc2ccc(-c3c(-c4ccc(F)cc4)sc4ncnc(O[C@H](Cc5ccccc5OCc5ccnc(-c6ccccc6OC)n5)C(=O)O)c34)c(C)c2Cl)CC1 (some centres unmarked) [CD74-L32-P1] | – | – | T/C (%) [1, 3]: 4*^$ %; ΔTumor volume (mm^3) [1, 5]: 38 mm^3
9 | CC#Cc1sc2ncnc(O[C@H](Cc3ccccc3OCc3ccnc(-c4ccccc4OC)n3)C(=O)O)c2c1-c1ccc(OCCN2CCN(C)CC2)c(Cl)c1CC [C7, (2R)-2-[(5Sa)-5-[3-chloro-2-ethyl-4-[2-(4-methylpiperazin-1-yl)ethoxy]phenyl]-6-prop-1-ynyl-thieno[2,3-d]pyrimidin-4-yl]oxy-3-[2-[[2-(2-methoxyphenyl)pyrimidin-4-yl]methoxy]phenyl]propanoic Acid] | 2.6 nM | 1.88 nM | –
10 | Cc1c(Cl)c2c(Cl)c(C)c1-c1c(-c3ccc(F)cc3)sc3ncnc(c13)O[C@@H](C(=O)O)Cc1cc(ccc1OCc1ccnc([C@H]3CC[C@H](OC[C@@H]4COCCO4)CC3)n1)OC[C@@H](CN1CCN(C)CC1)O2 [P17, (11R,20R)-23,26-dichloro-14-[[2-[4-[[(2S)-1,4-dioxan-2-yl]methoxy]cyclohexyl]pyrimidin-4-yl]methoxy]-3-(4-fluorophenyl)-24,25-dimethyl-20-[(4-methylpiperazin-1-yl)methyl]-10,18,21-trioxa-4-thia-6,8-diazapentacyclo[20.2.2.12,5.113,17.09,28]octacosa-1(24),2,5(28),6,8,13,15,17(27),22,25-decaene-11-carboxylic Acid] | – | – | IC50 (Monomac1 cells; Mono-Mac-1, 72 h): 0.62 nM
11 | COc1ccccc1-c1nccc(COc2ccc3cc2C[C@H](C(=O)O)Oc2ncnc4sc(-c5ccc(F)cc5)c(c24)-c2c(C)c(Cl)c(c(Cl)c2C)O[C@H](CN2CCN(C)CC2)CO3)n1 [P15, (11R,20R)-23,26-dichloro-3-(4-fluorophenyl)-14-[[2-(2-methoxyphenyl)pyrimidin-4-yl]methoxy]-24,25-dimethyl-20-[(4-methylpiperazin-1-yl)methyl]-10,18,21-trioxa-4-thia-6,8-diazapentacyclo[20.2.2.12,5.113,17.09,28]octacosa-1(25),2,5(28),6,8,13,15,17(27),22(26),23-decaene-11-carboxylic acid] | – | – | IC50 (Monomac1 cells; Mono-Mac-1, 72 h): 0.386 nM
12 | COc1ccccc1-c1nccc(COc2ccccc2C[C@@H](Oc2ncnc3sc(-c4ccc(F)cc4)c(-c4ccc(OCCN5CC[N+](C)(Cc6ccc(NC(=O)[C@H](CCCNC(N)=O)NC(=O)[C@@H](NC(=O)CCOCCN7C(=O)CC(C)C7=O)C(C)C)cc6)CC5)c(Cl)c4C)c23)C(=O)O)n1 (some centres unmarked) [CD74-L9-P1] | – | – | IC50 (Monomac1 cells; 72 h): 0.482 nM
13 | (2R)-2-{[(5Sa)-5-{3-chloro-2-methyl-4-[2-(4-methylpiperazin-1-yl)ethoxy]phenyl}-6-(4-fluorophenyl)thieno[2,3-d]pyrimidin-4-yl]oxy}-3-(2-{[2-(4-hydroxyphenyl)pyrimidin-4-yl]methoxy}phenyl)propanoic Acid [C5] | 4.05 nM | – | IC50 [2]: 4.08 nM
14 | Cc1c(Cl)c2c(Cl)c(C)c1-c1c(-c3ccc(F)cc3)sc3ncnc(c13)O[C@@H](C(=O)O)Cc1cc(ccc1OCc1ccnc([C@H]3CC[C@](F)(COC[C@@H]4COCCO4)CC3)n1)OC[C@@H](CN1CCN(C)CC1)O2 [P16, (11R,20R)-23,26-dichloro-14-[[2-[4-[[(2S)-1,4-dioxan-2-yl]methoxymethyl]-4-fluoro-cyclohexyl]pyrimidin-4-yl]methoxy]-3-(4-fluorophenyl)-24,25-dimethyl-20-[(4-methylpiperazin-1-yl)methyl]-10,18,21-trioxa-4-thia-6,8-diazapentacyclo[20.2.2.12,5.113,17.09,28]octacosa-1(24),2,5(28),6,8,13,15,17(27),22,25-decaene-11-carboxylic Acid] | – | – | IC50 (Monomac1 cells; Mono-Mac-1, 72 h): 0.281 nM
